In US12077503B2, “Substituted cyclic amides and their use as herbicides” (FMC CORPORATION, priority 2015, dated 2024):

Tests used:
Type in all cases: in vivo
Kochia (Kochia scoparia) [1] = assay: Test A preemergence
In short: (§1)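 Greenhouse, ~10 d after spray; visual injury vs untreated controls, 0 = no effect, 100 = complete control. Preemergence: directed soil spray over planted seeds. Postemergence: plants 2–10 cm, 1–2 leaf stage. Loam/sand blend. Compound in non-phytotoxic solvent with surfactant.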

[2] = tested on: barnyardgrass (Echinochloa crus-galli); assay: Test A preemergence
In short: as §1

[3] = tested on: giant foxtail (Setaria faberii); assay: Test A preemergence
In short: as §1

[4] = tested on: pigweed (Amaranthus retroflexus); assay: Test A preemergence
[5] = tested on: ragweed (common ragweed, Ambrosia elatior); assay: Test A preemergence
In short: as §1

[6] = tested on: ryegrass, Italian (Italian ryegrass, Lolium multiflorum); assay: Test A preemergence
In short: as §1

[7] = tested on: Galium (catchweed bedstraw, Galium aparine); assay: Test A postemergence; conditions: postemergence
In short: as §1

Kochia (Kochia scoparia) [8] = assay: Test A postemergence; conditions: postemergence
In short: as §1

[9] = tested on: barnyardgrass (Echinochloa crus-galli); assay: Test A postemergence; conditions: postemergence
In short: as §1

[10] = tested on: blackgrass (Alopecurus myosuroides); assay: Test A postemergence; conditions: postemergence
In short: as §1

corn (Zea mays) = assay: Test A postemergence; conditions: postemergence
In short: as §1

[11] = tested on: giant foxtail (Setaria faberii); assay: Test A postemergence; conditions: postemergence
In short: as §1

[12] = tested on: pigweed (Amaranthus retroflexus); assay: Test A postemergence; conditions: postemergence
In short: as §1

[13] = tested on: ragweed (common ragweed, Ambrosia elatior); assay: Test A postemergence; conditions: postemergence
In short: as §1

[14] = tested on: ryegrass, Italian (Italian ryegrass, Lolium multiflorum); assay: Test A postemergence; conditions: postemergence
In short: as §1

[15] = tested on: wheat (Triticum aestivum); assay: Test A postemergence; conditions: postemergence
In short: as §1

[16] = tested on: barnyardgrass (Echinochloa crus-galli); assay: Test B flooded paddy test; conditions: Flood, 250 g ai/ha; 0 to 100 scale where 0 is no effect and 100 is complete control; 13 to 15 d
In short: (§2)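 Greenhouse paddy pots with 2-leaf stage plants received compound by direct addition to floodwater 3 cm deep, kept at that level. Scored visually at 13–15 d versus controls (0 no effect; 100 complete control).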

[17] = tested on: ducksalad (Heteranthera limosa); assay: Test B flooded paddy test; conditions: Flood, 250 g ai/ha; 0 to 100 scale where 0 is no effect and 100 is complete control; 13 to 15 d
In short: as §2

rice (Oryra sativa) = assay: Test B flooded paddy test; conditions: Flood, 250 g ai/ha; 0 to 100 scale where 0 is no effect and 100 is complete control; 13 to 15 d
In short: as §2

[18] = tested on: sedge, umbrella (small-flower umbrella sedge, Cyperus difformis); assay: Test B flooded paddy test; conditions: Flood, 250 g ai/ha; 0 to 100 scale where 0 is no effect and 100 is complete control; 13 to 15 d
In short: as §2

[19] = 125 g ai/ha, preemergence, 0 to 100 scale (0 no effect, 100 complete control)
[20] = Preemergence, 500 g ai/ha, visual injury approx. 10 d
[21] = 125 g ai/ha, visual injury rating on 0 to 100 scale (0 no effect, 100 complete control), approx. 10 d
[22] = 500 g ai/ha, 0 to 100 scale, 0 no effect, 100 complete control

Compound: Cc1ccc(C2CN(C)C(=O)C2C(=O)Nc2ccccc2F)cc1F (stereo not drawn) [Compound 465]
- Plant response rating, Kochia (Kochia (Kochia scoparia) [1]; [19]): 80
- Kochia plant response rating (0 to 100 scale, 0 is no effect, 100 is complete control) (Kochia (Kochia scoparia) [1]; [20]): 80
- Plant response rating, Barnyardgrass [2, 19]: 90
- Barnyardgrass plant response rating (0 to 100 scale, 0 is no effect, 100 is complete control) [2, 20]: 100
- Plant response rating, Foxtail, Giant [3, 19]: 100
- Foxtail, Giant plant response rating (0 to 100 scale, 0 is no effect, 100 is complete control) [3, 20]: 100
- Plant response rating, Pigweed [4, 19]: 50
- Pigweed plant response rating (0 to 100 scale, 0 is no effect, 100 is complete control) [4, 20]: 70
- Plant response rating, Ragweed [5, 19]: 40
- Ragweed plant response rating (0 to 100 scale, 0 is no effect, 100 is complete control) [5, 20]: 70
- Plant response rating, Ryegrass, Italian [6, 19]: 70
- Ryegrass, Italian plant response rating (0 to 100 scale, 0 is no effect, 100 is complete control) [6, 20]: 70
- Galium plant response rating [7, 21]: 60
- Plant response rating, Galium [7, 22]: 60
- Kochia plant response rating (Kochia (Kochia scoparia) [8]; [21]): 50
- Plant response rating, Kochia (Kochia (Kochia scoparia) [8]; [22]): 60
- Barnyardgrass plant response rating [9, 21]: 90
- Plant response rating, Barnyardgrass [9, 22]: 90
- Blackgrass plant response rating [10, 21]: 40
- Plant response rating, Blackgrass [10, 22]: 70
- Corn plant response rating (corn (Zea mays); [21]): 80
- Plant response rating, Corn (corn (Zea mays); [22]): 90
- Foxtail, Giant plant response rating [11, 21]: 90
- Plant response rating, Foxtail, Giant [11, 22]: 90
- Pigweed plant response rating [12, 21]: 0
- Plant response rating, Pigweed [12, 22]: 20
- Ragweed plant response rating [13, 21]: 0
- Plant response rating, Ragweed [13, 22]: 30
- Ryegrass, Italian plant response rating [14, 21]: 60
- Plant response rating, Ryegrass, Italian [14, 22]: 70
- Wheat plant response rating [15, 21]: 60
- Plant response rating, Wheat [15, 22]: 70
- Plant response rating, Barnyardgrass [16]: 80
- Plant response rating, Ducksalad [17]: 100
- Plant response rating, Rice (rice (Oryra sativa)): 0
- Plant response rating, Sedge, Umbrella [18]: 0
